Source: patent publication US8236843B2, “Anti inflammatory compounds” (Elder Pharmaceuticals Ltd., priority 2008, dated 2012)
Like-named read-outs stand apart in the source and are kept apart here.

Tests used:
Wistar rats [1] = experiment: Carrageenan-induced rat paw edema model; format: in vivo; settings: 10 mg/kg oral, 2 h before carrageenan; for Anti-inflammatory activity in Wistar rats (% inhibition) 3 h: paw edema at 3 h; for Anti-inflammatory activity in Wistar rats (% inhibition) 4 h: paw edema at 4 h
Method: (§1) Male Wistar rats weighing 175-200 g and Swiss albino mice weighing 20-25 g were housed in the Animal Care Facility. The animals were fed standard laboratory feed and tap water. Unless otherwise noted, in all experiments described in the following text, the sample size in each group was at least 6.
In Vivo Screening Method, Carrageenan-Induced Rat Paw Edema Model
Male Wistar rats (120-140 gm) were fasted for 16 hour before the experiment. Anti-inflammatory activity was evaluated by carrageenan-induced paw edema test in rats. Diclofenac sodium, tolfenamic acid and celecoxib at 10 mg/kg were administered as standard drugs for comparison. The test molecules were administered at dose level 10 mg/kg. Molecules were suspended in 0.25% carboxymethylcellulose (CMC) and administered orally in a volume of 10 ml/kg, 2 hour before carrageenan injection. Paw edema was induced in rats by intradermal injection of 50 μl, of 1% λ-carrageenan in saline into the planer surface of right hind paw. The volume of the injected paw was measured hourly thereafter for 4 hours using plethysmometer (Ugo-Basile, Italy). Paw edema was compared with vehicle controlled group and percentage inhibition was calculated.

Swiss albino mice = experiment: Analgesic activity against acetic acid induced writhing; format: in vivo; settings: 10 mg/kg p.o., 1 h before i.p. 0.6% acetic acid; writhes counted for 10 min
Source text: as §1
Analgesic Activity Against Acetic Acid Induced Writhing
Pain was induced by injection of irritant i.e. acetic acid into the peritoneal cavity of mice. […] Vehicle (1% w/v carboxymethylcellulose (CMC), 0.5 ml per orally (p.o.)) was given to control group (n=6 per group) of mice. […]. One hour following the administration of test molecule, 0.1 ml/100 gm of 0.6% v/v acetic acid solution was injected intraperitoneally to each of the test mice. The number of writhes that occurred within the next 10 min following acetic acid administration was counted and recorded. Results were expressed as percentage inhibition of writhing.

Wistar rats [2] = settings: for Gastric score: 100 mg/kg oral, fasted rats, 5 hours, sum of lesion lengths, mean SEM, 6 rats; for Histopathology study (ulcerogenecity): Dose 100 mg/kg oral, rat stomach
Method: (§2) Assessment of Gastric Ulcerogenic Effects in the Rat on Acute Administration of Drugs
(§3) Groups of 6 male Wistar rats weighing 120-140 g were fasted for 24 h with free access to water. […] The lengths (in millimeters) of all hemorrhagic lesions were measured and the “gastric damage score” was calculated for each stomach by summing these values. After scoring the damage, a sample of the corpus region of each stomach was fixed in neutral buffered formalin for subsequent histologic assessment.

Wistar rats [3] = settings: rat, in vivo, po, 100 mg/kg
Method: as §2, §3

[4] = Acute oral toxicity studies (OECD AOT No. 425); settings: both sexes, mouse, in vivo, albino mice, observed 48 hrs
Method: Acute Oral Toxicity Studies
The mice were observed continuously for 2 h for behavioral, neurological and autonomic profiles for any lethality or death for next 48 hrs. Based on the results obtained from this study, lethal dose (LD50) was calculated.

| melting point [°C] | SMILES | Anti-inflammatory activity in Wistar rats (% inhibition) 3 h (Wistar rats [1]) [%] | Anti-inflammatory activity in Wistar rats (% inhibition) 4 h (Wistar rats [1]) [%] | Analgesic activity in Swiss albino mice (% inhibition) (Swiss albino mice) [%] | also measured |
| --- | --- | --- | --- | --- | --- |
| 202 to 204 | O=[N+]([O-])c1cn(Cc2ccc(-c3ccccc3-c3nnn[nH]3)cc2)cn1 | – | – | – | – |
| 158 to 162 | Cc1nc([N+](=O)[O-])c(Br)n1Cc1ccc(-c2ccccc2C#N)cc1 | – | – | – | – |
| 222 to 225 | Cc1nc([N+](=O)[O-])c(Br)n1Cc1ccc(-c2ccccc2C(=O)O)cc1 | – | – | – | – |
| – | Cc1ncc([N+](=O)[O-])n1Cc1ccc(-c2ccccc2C#N)cc1 [4′-(2-Methyl-5-nitro-imidazol-1-ylmethyl)-biphenyl-2-carbonitrile] | 19.52 | 24.25 | 84.25 | – |
| – | N#Cc1ccccc1-c1ccc(Cn2cnc([N+](=O)[O-])c2)cc1 [4′-(4-Nitro-imidazol-1-ylmethyl)-biphenyl-2-carbonitrile] | 35.82 | 44.28 | 86.61 | Gastric score (Wistar rats [2]): 1.83 ± 0.54; Histopathology study (ulcerogenecity) (Wistar rats [2]): No sign of ulceration |
| – | O=C(O)c1ccccc1-c1ccc(Cn2cnc([N+](=O)[O-])c2)cc1 [4′-(4-Nitro-imidazol-1-ylmethyl)-biphenyl-2-carboxylic acid] | 38.31 | 44.63 | 84.13 | Gastric score (Wistar rats [2]): 1.6 ± 0.50; Histopathology study (ulcerogenecity) (Wistar rats [2]): No sign of ulceration |
| – | Cc1ccc(-c2cc(C(F)(F)F)nn2-c2ccc(S(N)(=O)=O)cc2)cc1 [Celecoxib, reference compound] | 45.24 | 45.32 | 77.0 | Histopathology study (ulcerogenecity) (Wistar rats [3]): No sign of ulceration; LD50 at 48 h [4]: < 2000 mg/kg |
| – | O=C(O)Cc1ccccc1Nc1c(Cl)cccc1Cl [Diclofenac sodium, reference compound] | 35.05 | 39.99 | 89.51 | – |
| 154 to 155 | NS(=O)(=O)c1ccc(Nc2ccccc2-c2ccc(Cn3cc([N+](=O)[O-])nc3CO)cc2)cc1 [Formula (I) Sr. No. 7, 4-[4′-(2-Hydroxymethyl-4-nitro-imidazol-1-ylmethyl)-biphenyl-2-ylamino]-benzenesulfonamide] | – | – | – | – |
| – | Cc1c(Cl)cccc1Nc1ccccc1C(=O)O [Tolfenamic acid] | – | – | – | Histopathology study (ulcerogenecity) (Wistar rats [3]): Shows sign of; LD50 at 48 h [4]: < 550 mg/kg |
